Source: PubChem BioAssay (NCI)
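All cell lines were grown in 96-well plates and treated with compound for 48 hours. At the GI50, growth is halved. At the TGI there is no net growth.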

Legend:
Test in all cases: growth of human tumour cells (NCI), 48 h
[1] = tested on: 786-0 renal
[2] = tested on: A498 renal
[3] = tested on: A549 NSCLC
[4] = tested on: ACHN renal
[5] = tested on: BT-549 breast
[6] = tested on: CAKI-1 renal
[7] = tested on: CCRF-CEM leukemia
[8] = tested on: COLO 205 colon
[9] = tested on: DU-145 prostate
[10] = tested on: EKVX NSCLC
[11] = tested on: HCC-2998 colon
[12] = tested on: HCT-116 colon
[13] = tested on: HCT-15 colon
[14] = tested on: HL-60(TB) leukemia
[15] = tested on: HOP-62 NSCLC
[16] = tested on: HOP-92 NSCLC
[17] = tested on: HS 578T breast
[18] = tested on: HT29 colon
[19] = tested on: IGROV1 ovarian
[20] = tested on: K-562 leukemia
[21] = tested on: KM12 colon
[22] = tested on: LOX IMVI melanoma
[23] = tested on: M14 melanoma
[24] = tested on: MALME-3M melanoma
[25] = tested on: MCF7 breast
[26] = tested on: MDA-MB-231 breast
[27] = tested on: MDA-MB-435
[28] = tested on: MDA-MB-468 breast
[29] = tested on: MOLT-4 leukemia
[30] = tested on: NCI-H226 lung
[31] = tested on: NCI-H23 lung
[32] = tested on: NCI-H460 lung
[33] = tested on: NCI-H522 lung
[34] = tested on: OVCAR-3 ovarian
[35] = tested on: OVCAR-4 ovarian
[36] = tested on: OVCAR-5 ovarian
[37] = tested on: OVCAR-8 ovarian
[38] = tested on: PC-3 prostate
[39] = tested on: RPMI-8226 leukemia
[40] = tested on: RXF 393 renal
[41] = tested on: SF-268 CNS
[42] = tested on: SF-295 CNS
[43] = tested on: SF-539 CNS
[44] = tested on: SK-MEL-28 melanoma
[45] = tested on: SK-MEL-5 melanoma
[46] = tested on: SK-OV-3 ovarian
[47] = tested on: SN12C renal
[48] = tested on: SNB-19 CNS
[49] = tested on: SNB-75 CNS
[50] = tested on: SW-620 colon
[51] = tested on: T-47D breast
[52] = tested on: TK-10 renal
[53] = tested on: U251 CNS
[54] = tested on: UACC-257 melanoma
[55] = tested on: UACC-62 melanoma
[56] = tested on: UO-31 renal

SMILES: CCN(CC)c1ccnc(CNCCSC(c2ccccc2)(c2ccccc2)c2ccc(C)cc2)c1
- GI50 [1]: 1.71 µM
- TGI [1]: 3.21 µM
- GI50 [2]: 12.4 µM
- TGI [2]: 27.4 µM
- GI50 [3]: 4.98 µM
- TGI [3]: 20.6 µM
- GI50 [4]: 3.22 µM
- TGI [4]: 11.7 µM
- GI50 [5]: 1.9 µM
- TGI [5]: 5.46 µM
- GI50 [6]: 3.11 µM
- TGI [6]: 12.8 µM
- GI50 [7]: 1.96 µM
- TGI [7]: 5.19 µM
- GI50 [8]: 1.84 µM
- TGI [8]: 3.39 µM
- GI50 [9]: 2.92 µM
- TGI [9]: 8.29 µM
- GI50 [10]: 1.78 µM
- TGI [10]: 3.97 µM
- GI50 [11]: 1.69 µM
- TGI [11]: 3.07 µM
- GI50 [12]: 1.67 µM
- TGI [12]: 3.18 µM
- GI50 [13]: 1.67 µM
- TGI [13]: 3.15 µM
- GI50 [14]: 2.22 µM
- TGI [14]: 4.52 µM
- GI50 [15]: 2.29 µM
- TGI [15]: 6.21 µM
- GI50 [16]: 1.62 µM
- TGI [16]: 5.87 µM
- GI50 [17]: 2.39 µM
- TGI [17]: 7.84 µM
- GI50 [18]: 1.91 µM
- TGI [18]: 4.01 µM
- GI50 [19]: 3.21 µM
- TGI [19]: 12.3 µM
- GI50 [20]: 2.34 µM
- TGI [20]: 6.15 µM
- GI50 [21]: 2.33 µM
- TGI [21]: 5.79 µM
- GI50 [22]: 1.67 µM
- TGI [22]: 3.09 µM
- GI50 [23]: 1.84 µM
- TGI [23]: 3.68 µM
- GI50 [24]: 1.68 µM
- TGI [24]: 3.13 µM
- GI50 [25]: 1.38 µM
- TGI [25]: 2.85 µM
- GI50 [26]: 1.99 µM
- TGI [26]: 4.53 µM
- GI50 [27]: 2.26 µM
- TGI [27]: 5.38 µM
- GI50 [28]: 1.83 µM
- TGI [28]: 3.85 µM
- GI50 [29]: 2.85 µM
- TGI [29]: 7.28 µM
- GI50 [30]: 4.45 µM
- TGI [30]: 20.4 µM
- GI50 [31]: 1.7 µM
- TGI [31]: 3.27 µM
- GI50 [32]: 1.98 µM
- TGI [32]: 3.79 µM
- GI50 [33]: 2.27 µM
- TGI [33]: 5.61 µM
- GI50 [34]: 2.21 µM
- TGI [34]: 5.07 µM
- GI50 [35]: 3.7 µM
- TGI [35]: 14.5 µM
- GI50 [36]: 2.67 µM
- TGI [36]: 11.3 µM
- GI50 [37]: 2.49 µM
- TGI [37]: 6.12 µM
- GI50 [38]: 2.27 µM
- TGI [38]: 7.77 µM
- GI50 [39]: 2.05 µM
- TGI [39]: 4.88 µM
- GI50 [40]: 2.23 µM
- TGI [40]: 7.24 µM
- GI50 [41]: 3.35 µM
- TGI [41]: 13 µM
- GI50 [42]: 1.59 µM
- TGI [42]: 3.01 µM
- GI50 [43]: 1.87 µM
- TGI [43]: 3.52 µM
- GI50 [44]: 1.86 µM
- TGI [44]: 4.16 µM
- GI50 [45]: 1.73 µM
- TGI [45]: 3.12 µM
- GI50 [46]: 3.31 µM
- TGI [46]: 11.5 µM
- GI50 [47]: 2.4 µM
- TGI [47]: 6.29 µM
- GI50 [48]: 3.13 µM
- TGI [48]: 12 µM
- GI50 [49]: 2.87 µM
- TGI [49]: 14.1 µM
- GI50 [50]: 2.47 µM
- TGI [50]: 6.86 µM
- GI50 [51]: 2.5 µM
- TGI [51]: 9.04 µM
- GI50 [52]: 4.37 µM
- TGI [52]: 17 µM
- GI50 [53]: 2.14 µM
- TGI [53]: 6.02 µM
- GI50 [54]: 3.52 µM
- TGI [54]: 11.8 µM
- GI50 [55]: 2.64 µM
- TGI [55]: 8.33 µM
- GI50 [56]: 2.66 µM
- TGI [56]: 12.7 µM
